Data: PubChem BioAssay (NCI)
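Tested at 5 concentrations; 48 h exposure; 96-well plates; endpoints linearly interpolated, else capped at highest concentration. GI50 marks 50% less growth. At the TGI there is no net growth.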

Columns and labels:
Assay in all cases: NCI-60 cell line screen, 48 h
SF-295 CNS = test system: SF-295 CNS
COLO 205 colon = test system: COLO 205 colon
RXF 393 renal = test system: RXF 393 renal
NCI-H460 lung = test system: NCI-H460 lung
EKVX NSCLC = test system: EKVX NSCLC
HT29 colon = test system: HT29 colon
OVCAR-5 ovarian = test system: OVCAR-5 ovarian
786-0 renal = test system: 786-0 renal
ACHN renal = test system: ACHN renal
KM12 colon = test system: KM12 colon

Row | Compound | GI50 (SF-295 CNS) | TGI (SF-295 CNS) | GI50 (COLO 205 colon) | TGI (COLO 205 colon) | GI50 (RXF 393 renal) | TGI (RXF 393 renal) | GI50 (NCI-H460 lung) | TGI (NCI-H460 lung) | GI50 (EKVX NSCLC) | TGI (EKVX NSCLC) | GI50 (HT29 colon) | TGI (HT29 colon) | GI50 (OVCAR-5 ovarian) | TGI (OVCAR-5 ovarian) | GI50 (786-0 renal) | TGI (786-0 renal) | GI50 (ACHN renal) | TGI (ACHN renal) | GI50 (KM12 colon) | TGI (KM12 colon)
1 | CCN1CCN(Cc2ccc(NC(=O)Nc3nc4ccc(Oc5ccnc(C(=O)NC)c5)cc4s3)cc2C(F)(F)F)CC1 | 1.82 µM | 3.66 µM | 1.8 µM | 3.39 µM | 1.67 µM | 3.13 µM | 1.91 µM | 3.63 µM | 2.01 µM | 6.67 µM | 1.27 µM | 3.42 µM | 2.12 µM | 3.93 µM | 1.03 µM | 2.36 µM | 1.39 µM | 2.71 µM | 0.019 µM | 1.63 µM
2 | C1=C/COCc2cc(ccc2OCCN2CCCC2)Nc2nccc(n2)-c2ccc(o2)COC/1 | 2.74 µM | 8.02 µM | 1.29 µM | 2.75 µM | 0.397 µM | 1.64 µM | 1.16 µM | 4.5 µM | 1.88 µM | 5.89 µM | 1.33 µM | 7.33 µM | 0.716 µM | 3.8 µM | 2.71 µM | 13 µM | 0.699 µM | 11.8 µM | 0.451 µM | 9.37 µM
3 | Cc1ccc2nc(-c3ccc(OCC(=O)N=Nc4c(O)[nH]c5ccccc45)cc3)[nH]c2c1 | 19.4 µM | 49.7 µM | 4.03 µM | > 100 µM | 7.94 µM | 24.4 µM | 2.01 µM | 4.06 µM | 28 µM | > 100 µM | 2.43 µM | 6.27 µM | 19.1 µM | > 100 µM | 2.06 µM | 4.38 µM | 7.37 µM | > 100 µM | 3.55 µM | 13.2 µM
4 | O=C(O)/C=C\C(=O)Nc1ccccn1 | – | > 100 µM | – | > 100 µM | – | > 100 µM | – | > 100 µM | – | > 100 µM | – | > 100 µM | – | > 100 µM | – | > 100 µM | – | > 100 µM | – | > 100 µM
5 | C#CCNC(=O)NCCCCC(NC(=O)OCc1ccccc1)C(=O)OCc1ccccc1 (stereo not given) | – | > 100 µM | – | 32.8 µM | – | > 100 µM | – | > 100 µM | – | > 100 µM | – | > 100 µM | – | > 100 µM | – | > 100 µM | – | > 31.6 µM | – | 69.8 µM
6 | O=c1cccccc1NCCCCCCCNc1cccccc1=O | – | > 100 µM | – | > 100 µM | – | 25.8 µM | – | > 100 µM | – | > 100 µM | – | > 100 µM | – | > 100 µM | – | > 100 µM | – | > 100 µM | – | > 100 µM
7 | CN(C)c1nc(=NCc2ccco2)ss1 | – | > 61.4 µM | – | > 68.5 µM | – | 16.1 µM | – | > 100 µM | – | 64.3 µM | – | 20.4 µM | – | > 55.6 µM | – | 16.9 µM | – | 45 µM | – | > 55.7 µM
8 | O=C(C#Cc1ccccc1)N1c2ccccc2CC1c1c[nH]c2ccccc12 (stereo not given) | – | 49.7 µM | – | 31.6 µM | – | 19.5 µM | – | 42.3 µM | – | 42.1 µM | – | 40.6 µM | – | 64.4 µM | – | 34.8 µM | – | 66 µM | – | 31.5 µM
9 | Cl/C(N=Nc1ccccc1)=N/Nc1ccccc1 | – | > 100 µM | – | > 100 µM | – | > 100 µM | – | > 100 µM | – | > 100 µM | – | > 100 µM | – | > 100 µM | – | > 100 µM | – | > 100 µM | – | > 100 µM
10 | N#C/C(=C\c1cccc(O)c1O)C(N)=O | – | > 100 µM | – | 77.7 µM | – | 28 µM | – | > 100 µM | – | > 100 µM | – | > 100 µM | – | > 100 µM | – | > 100 µM | – | > 100 µM | – | > 100 µM
11 | Cn1c(=O)c2[nH]c(SCCN3CCOCC3)nc2n(C)c1=S | – | > 100 µM | – | > 100 µM | – | > 100 µM | – | > 100 µM | – | > 100 µM | – | > 100 µM | – | > 100 µM | – | > 100 µM | – | > 100 µM | – | > 100 µM
12 | CCCn1cnc2c(SCC(=O)O)nc(N)nc21 | – | > 100 µM | – | > 100 µM | – | > 100 µM | – | > 100 µM | – | > 100 µM | – | > 100 µM | – | > 100 µM | – | > 100 µM | – | > 100 µM | – | > 100 µM
13 | CSc1ncc(Br)c(Sc2nc(N)nc3nc[nH]c23)n1 | 1.15 µM | > 100 µM | 3.09 µM | 9.17 µM | 2.97 µM | 28.5 µM | 2.15 µM | 13.3 µM | 3.07 µM | 55.1 µM | 4.09 µM | 60.5 µM | 4.98 µM | > 100 µM | 3.82 µM | > 100 µM | 4.5 µM | 43.6 µM | 3.63 µM | 22.7 µM
14 | O=C(Nc1ccc(F)cc1F)c1cc(Cl)ccc1O | 1.56 µM | 3.16 µM | 7.79 µM | 22.5 µM | 1.37 µM | 5.1 µM | 1.42 µM | 19.2 µM | 1.94 µM | 8.38 µM | 3.62 µM | > 100 µM | 4.4 µM | > 100 µM | 2.71 µM | 7.69 µM | 2.09 µM | 7.68 µM | 2.31 µM | 7.68 µM
15 | CCn1c(-c2cc3c([nH]c4ccccc43)c(-c3cccc(O)c3)n2)n[nH]c1=S | 3.24 µM | 22.8 µM | 7.65 µM | 24.3 µM | 2.01 µM | 6.5 µM | 3.04 µM | 10.7 µM | 3.45 µM | 14.5 µM | 2.74 µM | 6.97 µM | 6.34 µM | 32.9 µM | 2.29 µM | 6.31 µM | 3.02 µM | 10.1 µM | 3.24 µM | 12.4 µM
16 | CCCCCCCCOC(=O)c1c(C)[nH]c(/C=C2\N=C(c3ccc[nH]3)C=C2OC)c1C | 0.0779 µM | 0.639 µM | 0.0846 µM | 2.62 µM | 0.0535 µM | 1.73 µM | 0.0765 µM | 11 µM | 0.12 µM | 9.15 µM | < 0.0179 µM | 1.43 µM | 0.0943 µM | 3.45 µM | 0.0407 µM | 1.32 µM | 0.0322 µM | 1.77 µM | 0.0355 µM | 1.97 µM
17 | CCOC(=O)CN(Cn1cncn1)Cn1cncn1 | – | > 100 µM | – | > 100 µM | – | 36 µM | – | 57.1 µM | – | > 100 µM | – | > 100 µM | – | > 100 µM | – | > 100 µM | – | > 100 µM | – | 44.6 µM
18 | COc1ccc(C(=O)c2cc3c(N)c(C(=O)Nc4ccccc4)sc3nc2C)cc1 | 0.639 µM | > 100 µM | 1.42 µM | > 100 µM | 0.485 µM | > 100 µM | 0.439 µM | 3.93 µM | 5.42 µM | > 100 µM | 0.562 µM | > 100 µM | 3.1 µM | > 100 µM | 4.73 µM | > 100 µM | 1.56 µM | > 100 µM | 0.539 µM | > 100 µM
19 | COc1cccc(CN(C)c2ccc(CO)c(Cl)c2)c1 | 3.71 µM | > 66.2 µM | 3.18 µM | 11.7 µM | 11.2 µM | > 62.2 µM | 0.97 µM | 21 µM | 24.8 µM | 97.9 µM | 5.03 µM | > 100 µM | 0.322 µM | 1.91 µM | 13.9 µM | > 67.6 µM | 42.1 µM | > 100 µM | 29.8 µM | > 100 µM
20 | CN(Cc1ccc(C(F)(F)F)cc1)CC(O)C(=O)Nc1ccc(Cl)cc1 (stereo not given) | 1.63 µM | 3.08 µM | 1.86 µM | 3.46 µM | 1.51 µM | 2.96 µM | 1.59 µM | 3.21 µM | 1.18 µM | 2.51 µM | 1.39 µM | 2.77 µM | 1.43 µM | 2.86 µM | 1.44 µM | 2.84 µM | 1.55 µM | 2.92 µM | 1.54 µM | 2.97 µM
21 | CC1CN(S(=O)(=O)c2oc(-c3ccc(Cl)cc3)nc2C#N)CC(C)O1 (stereo not given) | 13.8 µM | 27.2 µM | 2.04 µM | 4.35 µM | 1.69 µM | 3.15 µM | 11.5 µM | 26 µM | 7.34 µM | 27.9 µM | 2.06 µM | 4.11 µM | 2.07 µM | 4.44 µM | 1.62 µM | 3.3 µM | 1.74 µM | 3.13 µM | 10.3 µM | 23.5 µM
22 | COc1ccc(-c2cc(C(=O)Nc3cc(C(F)(F)F)cc(C(F)(F)F)c3)c3ccccc3n2)cc1 | – | 32.5 µM | – | 28.4 µM | – | 21 µM | – | 19.4 µM | – | 27.4 µM | – | 36.1 µM | – | > 100 µM | – | 28.1 µM | – | 76.2 µM | – | 35.1 µM
23 | CC(C)c1nc(N(C)S(C)(=O)=O)nc(-c2ccc(F)cc2)c1/C=C/[C@@H](O)C[C@@H](O)CC(=O)O | 32.7 µM | > 100 µM | > 100 µM | > 100 µM | 41.5 µM | > 100 µM | > 100 µM | > 100 µM | > 100 µM | > 100 µM | > 100 µM | > 100 µM | > 100 µM | > 100 µM | > 100 µM | > 100 µM | 34.2 µM | > 100 µM | > 100 µM | > 100 µM
